Source: ChEMBL document CHEMBL1201862, “PubChem BioAssay data set” (2004)
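Cells were grown in 96-well plates and exposed to each compound for 48 hours at five concentrations; endpoints were interpolated linearly between bracketing concentrations, or set to the highest concentration if not reached. At the GI50, growth is halved.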 Active and inactive are the calls of the source. Cut-off read from the data, not from the text of the source: active = GI50 up to about 1.1 µM and inactive = higher.

Tests used:
Assay in all cases: growth of human tumour cells (NCI), 48 h
786-0 = test system: 786-0
A549 = test system: A549
ACHN = test system: ACHN
BT-549 = test system: BT-549
CAKI-1 = test system: CAKI-1
CCRF-CEM = test system: CCRF-CEM
COLO 205 = test system: COLO 205
DU-145 = test system: DU-145
EKVX = test system: EKVX
HCT-116 = test system: HCT-116
HL-60 = test system: HL-60
HOP-62 = test system: HOP-62
HT-29 = test system: HT-29
IGROV-1 = test system: IGROV-1
K562 = test system: K562
KM12 = test system: KM12
LOX IMVI = test system: LOX IMVI
M14 = test system: M14
MCF7 = test system: MCF7
MDA-MB-231 = test system: MDA-MB-231
MDA-MB-435 = test system: MDA-MB-435
MDA-N = test system: MDA-N
MOLT-4 = test system: MOLT-4
NCI-H226 = test system: NCI-H226
NCI-H23 = test system: NCI-H23
NCI-H522 = test system: NCI-H522
OVCAR-3 = test system: OVCAR-3
OVCAR-4 = test system: OVCAR-4
OVCAR-5 = test system: OVCAR-5
OVCAR-8 = test system: OVCAR-8
PC-3 = test system: PC-3
SF-295 = test system: SF-295
SF-539 = test system: SF-539
SK-MEL-2 = test system: SK-MEL-2
SK-MEL-5 = test system: SK-MEL-5
SK-OV-3 = test system: SK-OV-3
SN12C = test system: SN12C
SNB-75 = test system: SNB-75
SW-620 = test system: SW-620
TK-10 = test system: TK-10
U-251 = test system: U-251
UACC-257 = test system: UACC-257
UACC-62 = test system: UACC-62
UO-31 = test system: UO-31
A498 = test system: A498
HCC 2998 = test system: HCC 2998
HCT-15 = test system: HCT-15
HOP-92 = test system: HOP-92
Hs-578T = test system: Hs-578T
Malme-3M = test system: Malme-3M
NCI-H460 = test system: NCI-H460
NCI/ADR-RES = test system: NCI/ADR-RES
RPMI-8226 = test system: RPMI-8226
RXF 393 = test system: RXF 393
SF-268 = test system: SF-268
SK-MEL-28 = test system: SK-MEL-28
SNB-19 = test system: SNB-19
SR = test system: SR
T47D = test system: T47D

Cn1c(=N)n[n+]([O-])c2ccccc21
GI50 (786-0): 4.24 µM (inactive) | GI50 (A549): 7.38 µM (inactive) | GI50 (ACHN): 4.9 µM (inactive) | GI50 (BT-549): 1.87 µM (inactive) | GI50 (CAKI-1): 2.49 µM (inactive) | GI50 (CCRF-CEM): 3.01 µM (inactive) | GI50 (COLO 205): 2.34 µM (inactive) | GI50 (DU-145): 2.26 µM (inactive) | GI50 (EKVX): 7.69 µM (inactive) | GI50 (HCT-116): 3.78 µM (inactive) | GI50 (HL-60): 2.79 µM (inactive) | GI50 (HOP-62): 2.45 µM (inactive) | GI50 (HT-29): 1.68 µM (inactive) | GI50 (IGROV-1): 3.59 µM (inactive) | GI50 (K562): 1.59 µM (inactive) | GI50 (KM12): 19.9 µM (inactive) | GI50 (LOX IMVI): 1.62 µM (inactive) | GI50 (M14): 2.02 µM (inactive) | GI50 (MCF7): 2.18 µM (inactive) | GI50 (MDA-MB-231): 9.42 µM (inactive) | GI50 (MDA-MB-435): 0.541 µM (active) | GI50 (MDA-N): 1.9 µM (inactive) | GI50 (MOLT-4): 2.03 µM (inactive) | GI50 (NCI-H226): 6.98 µM (inactive) | GI50 (NCI-H23): 2.07 µM (inactive) | GI50 (NCI-H522): 3.72 µM (inactive) | GI50 (OVCAR-3): 0.895 µM (active) | GI50 (OVCAR-4): 2.48 µM (inactive) | GI50 (OVCAR-5): 2.25 µM (inactive) | GI50 (OVCAR-8): 13 µM (inactive) | GI50 (PC-3): 5.6 µM (inactive) | GI50 (SF-295): 2.98 µM (inactive) | GI50 (SF-539): 1.99 µM (inactive) | GI50 (SK-MEL-2): 2.22 µM (inactive) | GI50 (SK-MEL-5): 1.83 µM (inactive) | GI50 (SK-OV-3): 25.3 µM (inactive) | GI50 (SN12C): 1.84 µM (inactive) | GI50 (SNB-75): 2.01 µM (inactive) | GI50 (SW-620): 2.12 µM (inactive) | GI50 (TK-10): 25.6 µM (inactive) | GI50 (U-251): 12.3 µM (inactive) | GI50 (UACC-257): 2.71 µM (inactive) | GI50 (UACC-62): 1.09 µM (active) | GI50 (UO-31): 3.22 µM (inactive)

N#Cc1sc2c(c1OC(=O)c1ccc(C(F)(F)F)cc1)c(=O)n(-c1ccccc1)c(=S)n2-c1ccccc1
GI50 (786-0): 32.1 µM (inactive) | GI50 (A498): 26.7 µM (inactive) | GI50 (A549): 23.3 µM (inactive) | GI50 (ACHN): 26.2 µM (inactive) | GI50 (CAKI-1): 32.4 µM (inactive) | GI50 (CCRF-CEM): 10.2 µM (inactive) | GI50 (COLO 205): 21.6 µM (inactive) | GI50 (DU-145): 38.5 µM (inactive) | GI50 (EKVX): 24.9 µM (inactive) | GI50 (HCC 2998): 34.4 µM (inactive) | GI50 (HCT-116): 17.8 µM (inactive) | GI50 (HCT-15): 21.8 µM | GI50 (HL-60): 21 µM (inactive) | GI50 (HOP-62): 31.1 µM (inactive) | GI50 (HOP-92): 19.7 µM (inactive) | GI50 (HT-29): 25.2 µM (inactive) | GI50 (Hs-578T): 26.2 µM (inactive) | GI50 (IGROV-1): 21.2 µM (inactive) | GI50 (K562): 28.2 µM (inactive) | GI50 (KM12): 27.7 µM (inactive) | GI50 (LOX IMVI): 24.5 µM (inactive) | GI50 (M14): 24.2 µM (inactive) | GI50 (MCF7): 30.1 µM (inactive) | GI50 (MDA-MB-231): 31.3 µM (inactive) | GI50 (MDA-MB-435): 26.5 µM (inactive) | GI50 (MDA-N): 29.5 µM (inactive) | GI50 (MOLT-4): 19.5 µM (inactive) | GI50 (Malme-3M): 33 µM (inactive) | GI50 (NCI-H226): 29.8 µM (inactive) | GI50 (NCI-H23): 29.6 µM (inactive) | GI50 (NCI-H460): 30.3 µM (inactive) | GI50 (NCI-H522): 0.107 µM (active) | GI50 (NCI/ADR-RES): 27.9 µM (inactive) | GI50 (OVCAR-3): 19.5 µM (inactive) | GI50 (OVCAR-4): 33.8 µM (inactive) | GI50 (OVCAR-5): 49.2 µM (inactive) | GI50 (OVCAR-8): 23.2 µM (inactive) | GI50 (PC-3): 26.7 µM (inactive) | GI50 (RPMI-8226): 17.4 µM (inactive) | GI50 (RXF 393): 14.8 µM (inactive) | GI50 (SF-268): 33 µM (inactive) | GI50 (SF-295): 25.6 µM (inactive) | GI50 (SF-539): 25.2 µM (inactive) | GI50 (SK-MEL-28): 33.8 µM (inactive) | GI50 (SK-MEL-5): 24.9 µM (inactive) | GI50 (SK-OV-3): 38.5 µM (inactive) | GI50 (SN12C): 29.5 µM (inactive) | GI50 (SNB-19): 34 µM (inactive) | GI50 (SNB-75): 27.4 µM (inactive) | GI50 (SR): 0.0481 µM (active) | GI50 (SW-620): 40.2 µM (inactive) | GI50 (T47D): 34.5 µM (inactive) | GI50 (TK-10): 27.6 µM (inactive) | GI50 (U-251): 20.7 µM (inactive) | GI50 (UACC-257): 42.7 µM (inactive) | GI50 (UACC-62): 22.4 µM (inactive)

COC1(OC)c2no[n+]([O-])c2C(OC)(OC)c2c1no[n+]2[O-]
GI50 (786-0): 18.5 µM (inactive) | GI50 (A498): 19.1 µM (inactive) | GI50 (A549): 23.6 µM (inactive) | GI50 (ACHN): 19.5 µM (inactive) | GI50 (CAKI-1): 37.8 µM (inactive) | GI50 (CCRF-CEM): 4.19 µM (inactive) | GI50 (COLO 205): 12.9 µM (inactive) | GI50 (DU-145): 28.3 µM (inactive) | GI50 (EKVX): 14.7 µM (inactive) | GI50 (HCC 2998): 21 µM (inactive) | GI50 (HCT-116): 11.1 µM (inactive) | GI50 (HCT-15): 22 µM | GI50 (HL-60): 37.3 µM (inactive) | GI50 (HOP-62): 18.4 µM (inactive) | GI50 (HT-29): 17.3 µM (inactive) | GI50 (Hs-578T): 31.4 µM (inactive) | GI50 (IGROV-1): 21.7 µM (inactive) | GI50 (K562): 38.9 µM (inactive) | GI50 (KM12): 11.7 µM (inactive) | GI50 (LOX IMVI): 14.9 µM (inactive) | GI50 (M14): 12.3 µM (inactive) | GI50 (MCF7): 14.1 µM (inactive) | GI50 (MDA-MB-231): 16.4 µM (inactive) | GI50 (MDA-MB-435): 17.3 µM (inactive) | GI50 (MDA-N): 19.6 µM (inactive) | GI50 (MOLT-4): 12.4 µM (inactive) | GI50 (Malme-3M): 14.4 µM (inactive) | GI50 (NCI-H226): 24.5 µM (inactive) | GI50 (NCI-H23): 11.4 µM (inactive) | GI50 (NCI-H460): 26.7 µM (inactive) | GI50 (NCI-H522): 21.7 µM (inactive) | GI50 (NCI/ADR-RES): 26.6 µM (inactive) | GI50 (OVCAR-3): 7.85 µM (inactive) | GI50 (OVCAR-4): 21.9 µM (inactive) | GI50 (OVCAR-5): 21.3 µM (inactive) | GI50 (OVCAR-8): 13.4 µM (inactive) | GI50 (PC-3): 25.3 µM (inactive) | GI50 (RPMI-8226): 35.6 µM (inactive) | GI50 (RXF 393): 26.1 µM (inactive) | GI50 (SF-268): 25.7 µM (inactive) | GI50 (SF-295): 35.7 µM (inactive) | GI50 (SF-539): 18.3 µM (inactive) | GI50 (SK-MEL-28): 15.7 µM (inactive) | GI50 (SK-MEL-2): 21.1 µM (inactive) | GI50 (SK-MEL-5): 14.9 µM (inactive) | GI50 (SN12C): 20.4 µM (inactive) | GI50 (SNB-19): 24.5 µM (inactive) | GI50 (SNB-75): 18.3 µM (inactive) | GI50 (SR): 4.38 µM (inactive) | GI50 (SW-620): 17.9 µM (inactive) | GI50 (T47D): 21.8 µM (inactive) | GI50 (TK-10): 16.1 µM (inactive) | GI50 (UACC-257): 12.5 µM (inactive) | GI50 (UACC-62): 11.2 µM (inactive) | GI50 (UO-31): 28.2 µM (inactive)
